Laboratory results as given in patent US9155761B2, “Method for the treatment of cancer” (UNIVERSITY COLLEGE CORK, NATIONAL UNIVERSITY OF IRELAND, …, priority 2009, dated 2015).
Entries after “also recorded” stand apart in the source; their conditions may differ.

How the values were obtained:
[1] = test system: KYSE450; assay: Mitochondrial depolarization, JC-1 probe; type: cell-based, human; conditions: 48 hour treatment
Experimental: (§1) Mitochondrial membrane potential was determined using the JC-1 probe (Molecular Probes). In non-apoptotic cells, JC1 accumulates as aggregates in the mitochondria, which stain red (FL2; 590 nm). At the onset of apoptosis, a loss of mitochondrial membrane potential (ΔΨm) releases the aggregated JC1, returning it to its monomeric form, which stains the cytosol green (FL1; 530 nm). Therefore, fluorescence of the JC-1 probe in the FL-2 channel decreases as mitochondrial membrane integrity is lost, while the fluorescence in FL-1 channel increases. Cells were incubated in JC1 (7.5 μg/ml) at 37° C. for 15 mins, and washed prior to analysis by flow cytometry (FACScan, Becton Dickinson). Percentages denote the proportion of cells with depolarised mitochondria following 48 hour incubation with 5-Fluorouracil and represent at least three independent experiments.

[2] = test system: OE19; assay: Mitochondrial depolarization, JC-1 probe; type: cell-based, human; conditions: 48 hour treatment
Experimental: as §1

[3] = test system: OE21; assay: Mitochondrial depolarization, JC-1 probe; type: cell-based, human; conditions: 48 hour treatment
Experimental: as §1

[4] = test system: OE33; assay: Mitochondrial depolarization, JC-1 probe; type: cell-based, human; conditions: 48 hour treatment
Experimental: as §1

[5] = test system: OE21; assay: Monodansylcadaverine (MDC)-labelled vacuoles; type: cell-based, human; conditions: 25 μM
Experimental: (§2) MDC is an autofluorescent weak base that accumulates in acidic lysosomal vacuoles, showing high selectivity for autophagosomes, due to the high level of unhydrolyzed membrane lipids from engulfed organelles, which enhance MDC fluorescence. Cells were incubated with 0.1 mM MDC in PBS at 37° C. for 10 minutes (Biederbick et al., 1995), washed and immediately analyzed by fluorescent microscopy.

[6] = test system: OE33; assay: Monodansylcadaverine (MDC)-labelled vacuoles; type: cell-based, human; conditions: 25 μM
Experimental: as §2

[7] = test system: CT26 (Colorectal carcinoma cells); assay: CT26 colorectal carcinoma model, intratumoural 5-FU / Lithium Chloride; type: in vivo, mice; conditions: intratumoural thrice weekly; Lithium Chloride 200 mg/kg; 5-FU 20 mg/kg
Experimental: For routine tumour induction, 1×10^6 CT26 (Colorectal carcinoma cells) suspended in 200 μl of serum free DMEM were injected subcutaneously into the right flank of adult female Balb/c mice, after anaesthesia. Mice were randomly divided into experimental groups. Mice were treated at a tumour volume of approximately 60 mm^3 in volume (5-7 mm major diameter). All treatments were delivered in 50 μl volumes, administered directly into the tumour, thrice weekly with PBS (Control), Lithium Chloride (200 mg/kg), 5-FU (20 mg/kg) and a combination of both Lithium and 5-FU (200 mg/kg, 20 mg/kg). Following drug treatment, tumours were monitored by alternate day measurements in two dimensions, using Verniers Calipers. Tumor volumes were calculated according to the formula V=ab^2/6, where ‘a’ is the longest diameter of the tumor and ‘b’ is the longest diameter perpendicular to diameter ‘a’. Animals were culled when tumour volumes exceeded ˜500 mm^3 (no greater than 15 mm in diameter). […] Treatment of these animals was maintained until day 58, following which all treatments ceased.

## O=c1[nH]cc(F)c(=O)[nH]1 [5-FU, 5-fluorouracil]
[1]
  mitochondrial depolarization (JC-1): do not show caspase-3 activity or mitochondrial membrane depolarization; also recorded: do not exhibit membrane depolarization
[2]
  mitochondrial depolarization (JC-1): do not show caspase-3 activity or mitochondrial membrane depolarization
[3]
  mitochondrial depolarization (JC-1): significant mitochondrial depolarization
[4]
  mitochondrial depolarization (JC-1): mitochondrial depolarization
[5]
  MDC staining pattern: MDC staining patterns are diffuse
[6]
  MDC staining pattern: MDC staining patterns are diffuse
[7]
  survival: day beyond which no animal of the group was alive / final animal euthanized: 33 days
